Laboratory results as given in US8598120B2 (Amylin Pharmaceuticals, LLC, priority 2004, dated 2013).
Square brackets hold non-standard residues; d marks the D form. * marks the point of attachment. Pentanoyl(4-Me) = CC(C)CCC(=O)*; Aib = CC(C)(N)C(=O)O

Columns and labels:
[1] = Ghrelin assay (plasma total and active ghrelin); assay type: in vivo, rats
Method: All experiments were performed in the light cycle. Animals were fasted for approximately 20 hours before experimentation. All animals were given free access to water until the start of the experiment. The animals' tails were anesthetized with 20% benzocaine (Hurricaine, Beutlich Pharmaceutical, Waukegan, Ill.), and blood samples were collected from the tail vein. Total and active ghrelin concentrations were measured using Linco RIA kits GHRA-89HK and GHRA-88HK, respectively.
In study 1, HSD rats were subjected to periodic blood sampling from the topically anesthetized tail and ghrelin levels were assayed. […] The blood samples were analyzed for total and active (acylated) ghrelin (Linco).
Blood plasma samples were collected at least at times 0, 10, 20, 30, 60, and 90 min.

[2] = Ethanol-induced gastric mucosal injury (gastroprotection); assay type: in vivo, rats; details: for ED50 for the gastroprotective effect: s.c.
Method: Thirty min after gavage, each rat was anesthetized with 5% halothane, the stomach excised, opened along the lesser curvature and everted to expose the mucosa. The everted stomachs were gently rinsed with saline and immediately graded for mucosal damage by each of 10 observers blinded to the experimental treatment.
Stomachs were excised and graded for injury 30 min after ethanol gavage, as described above. The result is provided in the next to the last bar of FIG. 11A.
Stomachs were excised and graded for injury 30 min after ethanol gavage, as described above, and blood was taken for plasma glucose measurement. The injury response was also measured in glucose-treated rats coadministered a 3 mg intravenous bolus of AC187 (n=9).

[3] = Pentagastrin-stimulated gastric acid secretion in gastric fistula rats; assay type: in vivo; details: for ED50 for the acid-suppressive effect: s.c.
Method: The experiments were performed during the light cycle. The rats, fed rat chow (Teklad L M 485, Madison, Wis.), were fasted for approximately 20 hours before experimentation. They were given water ad libitum until the start of the experiment.
The rats (age 9-14 weeks, body mass 264-395 g) were surgically fitted with double gastric fistulae by the supplier (Zivic Miller, Catalog number SCAO3.00). During laparotomy under halothane anesthesia, a grommet-shaped double lumen plug was sutured into the stomach wall. Two silastic 2.3 mm internal diameter (entry and exit) cannulae connected to the plug and communicating with the gastric lumen were tracked through the abdominal wall, subcutaneously to the interscapular region where they were separately exteriorized. The laparotomy wound was closed with clips, the rat was placed in a heated recovery cage for one day with free access to water. Thereafter, the rats were housed singly with free access to water and rat chow until they were subjected to overnight fasting for experiments which were performed on conscious rats, about 10-15 days after surgery.
Gastric catheters were uncapped and attached to flexible PE240 tubing for injection and sampling. To ensure patency of the catheters, 2-3 mL of saline solution at room temperature was injected and immediately withdrawn from the stomach. This was repeated until flow was easy and the effluent was clean. Gastric acid secretion was measured at 10 min intervals by injecting 5 mL saline and 2 mL air via one catheter, then immediately withdrawing the same via the other catheter. In this way errors due to incomplete aspiration of the small, secreted volume could be minimized. Three mL of each gastric aspirate were titrated to pH 7.0 with 0.01 N sodium hydroxide using a pH meter (Beckman model number PHI34 Fullerton, Calif.). The amount of base required for each titration, corrected for the total volume aspirated, was used to calculate the moles of acid in each sample.

[4] = in vivo; cited from earlier work
[5] = Food intake assay in overnight fasted mice; assay type: in vivo; details: 25 nmol/kg intraperitoneal
Method: Female NIH/Swiss mice (8-14 weeks old) were group housed with a 12:12 hour light:dark cycle. Water and a standard pelleted mouse chow diet are available ad libitum, except as noted. Animals are fasted starting at approximately 1500 hrs, 1 day prior to experiment.
The effects of treatment on food intake are expressed as % change relative to control.

[6] = 100 μg, one hour after amylin injection

Molecule | cumulative food intake compared to vehicle, 30 min [5] [%] | cumulative food intake compared to vehicle, 60 min [5] [%] | cumulative food intake compared to vehicle, 120 min [5] [%] | also measured
KCNTATCATQRLANFLVRSSNNLGPVLPPTNVGSNTY (listed as Rattus sp.) [rat amylin] | – | – | – | reduction of active ghrelin (FIG. 8A) ([1]; 10 μg s.c. 20 min after pentagastrin […], within 1 hour): ~50%; plasma ghrelin, amylin alone without pentagastrin (FIG. 8B) ([1]; 30 μg/kg s.c., no pentagastrin): plasma ghrelin was reduced compared to the control; total plasma ghrelin compared to saline control (FIGS. 8B, 8C) ([1]; 30 μg/kg s.c., with or without pentagastrin): reduction in total plasma ghrelin
O=C[C@H](O)[C@@H](O)[C@H](O)[C@H](O)CO [D-glucose] | – | – | – | decrease of gastric injury score ([2]; 250 mg intraperitoneal, t=−30 min from gavage): 18.5±4.6%
Amylin: amylin peptide hormone as summarised from the literature (Table 1, background), species not stated (KCNTATCATQRLANFLVHSSNNFGAILSSTNVGSNTY; Islet amyloid polypeptide; UniProt P10997 34-70, looked up) | – | – | – | rate of acid secretion as % of the basal rate that preceded pentagastrin injection [3, 6]: 32%; reduction of pentagastrin-stimulated secretion of acid [3, 6]: 93.4±2.6%; gastric acid production (FIG. 10A) ([3]; injected 40 min after pentagastrin, 0.1-100 μg): dose-dependently inhibited gastric acid production; ED50 for the acid-suppressive effect [3]: 41 pmol/kg; ED50 for the acid-suppressive effect ([3]; ±0.15 log units): 0.05 μg/rat; reduction of injury score ([2]; doses of 0.3 μg and higher): 67%; ED50 for the gastroprotective effect [2]: 31 pmol/kg; protection of the stomach from mucosal injury (FIG. 11C) ([2]; s.c. before ethanol gavage, P<0.05 with doses of 0.1 μg and higher): dose-dependently protected the stomach from mucosal injury; ED50 for the gastroprotective effect ([2]; ±0.40 log units): 0.036 µg; onset of effect in food intake assays [4]: ≤ 30 min; time course of effect in food intake assays [4]: its effect tapers off after 60 minutes
Isocaproyl-STAVL(Aib)RLSQELRLQTYPRTNTGSGTP ({Pentanoyl(4-Me)}-STAVL[Aib]RLSQELRLQTYPRTNTGSGTP-NH2; SMILES CC(C)CCC(=O)N[C@@H](CO)C(=O)N[C@H](C(=O)N[C@@H](C)C(=O)N[C@H](C(=O)N[C@@H](CC(C)C)C(=O)NC(C)(C)C(=O)N[C@@H](CCCNC(=N)N)C(=O)N[C@@H](CC(C)C)C(=O)N[C@@H](CO)C(=O)N[C@@H](CCC(N)=O)C(=O)N[C@@H](CCC(=O)O)C(=O)N[C@@H](CC(C)C)C(=O)N[C@@H](CCCNC(=N)N)C(=O)N[C@@H](CC(C)C)C(=O)N[C@@H](CCC(N)=O)C(=O)N[C@H](C(=O)N[C@@H](Cc1ccc(O)cc1)C(=O)N1CCC[C@H]1C(=O)N[C@@H](CCCNC(=N)N)C(=O)N[C@H](C(=O)N[C@@H](CC(N)=O)C(=O)N[C@H](C(=O)NCC(=O)N[C@@H](CO)C(=O)NCC(=O)N[C@H](C(=O)N1CCC[C@H]1C(N)=O)[C@@H](C)O)[C@@H](C)O)[C@@H](C)O)[C@@H](C)O)C(C)C)[C@@H](C)O) [Compound 29] | 4 | −1 | −25 | –
CSALSTCVLGRLSQELHRLQTYPRTNTGSNTY [Compound 26] | −29 | −36 | −47 | –
KCNTATCVLGRLNEYLHRLQTYPRTNTGSNTY [Compound 101] | −52 | −48 | −35 | –
KCNTATCVLGRLSQELHRLQTYPTNVGSEAF [Compound 85] | 3 | −16 | −16 | –
KCNAATCVLGRLSQELHRLQTYPRTNTGSNTY [Compound 17] | −42 | −30 | −30 | cumulative food intake compared to vehicle, 180 min [5]: −25%
KCNTATCVLGRLSRSLHRLQTYPRTNTGSNTY [Compound 86] | −44 | −26 | −16 | –
CSNLSTCVLGKLSQELHKLQTYPRTNTGSGTP (listed as Oncorhynchus sp.) [salmon calcitonin] | – | – | – | time course of effect in food intake assays [4]: delayed effect, with peak levels still maintained at 240 minutes
KCNTATCVLGRLSQELHKLQTYPRTNTGSNTY [Compound 24] | −40 | −34 | −35 | cumulative food intake compared to vehicle, 180 min [5]: −35%
KCNTAVCVLGRLSQELHRLQTYPRTNTGSNTY [Compound 37] | −3 | −2 | −16 | –
DSNLSTKVLGRLSQELHRLQTYPRTNTGSNTY [Compound 68] | −10 | −13 | −21 | –
KCNTATCVLGRLAAFLHRLQTYPRTNTGSNTY [Compound 96] | −49 | −38 | −19 | cumulative food intake compared to vehicle, 180 min [5]: −23%
KCNTATCVLGRLSQELHRLQTYPPTNTGSNTY [Compound 12] | −43 | −39 | −37 | cumulative food intake compared to vehicle, 180 min [5]: −32%
